Values of other authors in patent publication US10993944B2, “Methods and compositions for the treatment of hair loss” (Aneira Pharma, Inc., priority 2019, dated 2021).
Read-outs that look alike come from different tables or passages of the source. Blank lines part the entries; values can stand above or below the compound they belong to.

Columns and labels:
[1] = tested on: hair growth
[2] = tested on: elevated intraocular pressure; details: glaucomatous monkey eyes; Gagliuso 2004
[3] = tested on: elevated intraocular pressure; details: human glaucoma patients non-responsive to latanoprost; Gandolfi 2003
[4] = tested on: dihydrotestosterone (DHT); details: oral; including prostate gland and scalp
[5] = tested on: hair growth; details: McCarey 2004
[6] = biological target: human recombinant FP receptor (Homo sapiens, UniProt P43088)
[7] = not given; remark: listed apart in the source

Sequence of human recombinant FP receptor (P43088 whole entry): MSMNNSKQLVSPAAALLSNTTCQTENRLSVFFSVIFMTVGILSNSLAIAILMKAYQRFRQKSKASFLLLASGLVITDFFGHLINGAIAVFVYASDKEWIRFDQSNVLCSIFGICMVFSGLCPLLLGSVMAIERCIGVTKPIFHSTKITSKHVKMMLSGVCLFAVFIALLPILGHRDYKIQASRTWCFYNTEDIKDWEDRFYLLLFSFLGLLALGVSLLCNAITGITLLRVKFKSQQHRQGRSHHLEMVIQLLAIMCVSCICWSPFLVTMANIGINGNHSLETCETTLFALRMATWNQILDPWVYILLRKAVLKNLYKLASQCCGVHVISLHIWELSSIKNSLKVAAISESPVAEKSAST

SMILES: Nc1cc(N2CCCCC2)nc(N)[n+]1OS(=O)(=O)[O-] [minoxidil sulphate]
potency as hair growth agent compared to minoxidil [1]: much more potent hair growth agent

SMILES: CCNC(=O)CCC/C=C\C[C@@H]1[C@@H](/C=C/[C@@H](O)CCc2ccccc2)[C@H](O)C[C@@H]1O [Bimatoprost]
effect on elevated intraocular pressure in combination with latanoprost [2]: additive to that of latanoprost
response in reducing elevated intraocular pressure [3]: found responsive to bimatoprost

SMILES: CC(C)(C)NC(=O)[C@H]1CC[C@H]2[C@@H]3CC[C@H]4NC(=O)C=C[C@]4(C)[C@H]3CC[C@]12C [finasteride, (1S,3aS,3bS,5aR,9aR,9bS,11aS)—N-tert-butyl-9a,11a-dimethyl-7-oxo-1,2,3,3a,3b,4,5,5a,6,9b,10,11-dodecahydroindeno[5,4-f]quinoline-1-carboxamide]
decrease of production of dihydrotestosterone (DHT) [4]: about 70%

SMILES: CCCCCCCC(=O)CC[C@@H]1[C@@H](C/C=C\CCCC(=O)OC(C)C)[C@@H](O)C[C@H]1O [Uenoprostone isopropyl ester, Unoprostone isopropyl ester]
hair growth [5]: cause no hair growth and in fact may inhibit hair growth

SMILES: CCCCCCCC(=O)CC[C@@H]1[C@@H](C/C=C\CCCC(=O)O)[C@@H](O)C[C@H]1O [uenoprostone free acid]
hair growth [5]: cause no hair growth and in fact may inhibit hair growth

potency compared to PGF2α ([6]; human FP receptors): twice the potency of PGF2α
SMILES: O=C(O)CCC/C=C\C[C@@H]1[C@@H](CC[C@@H](O)CCc2ccccc2)[C@H](O)C[C@@H]1O [Latanoprost free acid, Latanoprost acid]
potency as an FP receptor ligand compared to latanoprost ([6]; human recombinant FP receptor): two-hundred times more potent than latanoprost

fat solubility compared to bimatoprost: more fat soluble than bimatoprost
solubility in water (words): poorly dissolved in water
solubility in water (words) (listed as latanoprost): poor solubility in water
stability in acidic or basic aqueous solutions ([7]; acidic or basic aqueous solutions): no more than 48 hours
stability in neutral aqueous solutions ([7]; neutral aqueous solutions, room temperature): up to one month
SMILES: CC(C)OC(=O)CCC/C=C\C[C@@H]1[C@@H](CC[C@@H](O)CCc2ccccc2)[C@H](O)C[C@@H]1O [Latanoprost, isopropyl ester of 17-phenyl-13,14-dihydro prostaglandin F2a]
solubility in propylene glycol, methanol, ethanol and 2-propanol (highest concentration (5%)): Sufficient amount of solubility can be obtained even at the highest concentration (5%)
